Measurements from patent publication US20120302569A1, “PHENYL-THIAZOLYL INHIBITORS OF PRO-MATRIX METALLOPROTEINASE ACTIVATION” (priority 2011, published 2012).

Experiments:
[1] = target: T1, MMP9 mediated gelatinase activity (Rattus norvegicus, UniProt P50282); assay: In situ zymography of gelatinase activity in livers of SCW-induced rats; type: in vivo; set-up: reduction of liver gelatinase activity: reference not given here; conditions: for Intensity Mean / Intensity Rat 1 / Intensity Rat 2 / Intensity Rat 3: Day 25-28, liver
T1 construct: from tissue; host or cells: liver cryosections of female Lewis rats
Description: In situ zymography provides an alternative approach to assess active MMP9 in tissues (J Histochem Cytochem; 2004; 52:711-722). Tissue sections are overlain with fluorescein-conjugated gelatin wherein the conjugation is sufficiently dense to cause the fluorescein to be dye-quenched (DQ). Proteolytic degradation of the DQ-gelatin releases the fluorescein from the quenching effect giving rise to bright green fluorescence at the site of degradation. Because in situ zymography requires the use of frozen sections, calcified tissues are problematic. However, an additional feature of the SCW arthritis model is the development of hepatic granulomatous disease (J Immunol; 1986; 137:2199-2209), and MMP9 reportedly plays a role in macrophage recruitment in the granulomas response to mycobacteria (Infect Immun; 2006; 74:6135-6144). Consequently, granulomatous livers from SCW-treated rats were assessed for active MMP9 by in situ zymography.
As described above, Female Lewis (LEW/N) rats, 5-6 weeks of age (80-100 g) were injected (i.p.) with saline or SCW PG-PS. On day 28, when the granulomatous response was well established, animals were sacrificed and livers were frozen in OCT cryo-sectioning medium and 10 μm sections were cut on a Cryome HM 500 M cryotome and mounted on glass microscope slides. Sections were air dried briefly. MMP9 was confirmed as the source of the gelatinase activity in the liver by treating liver sections with monoclonal antibodies directed against the active site of the two major gelatinases MMP9 and MMP2. Liver sections overlain with 50 μL of 100 μg/mL neutralizing mouse monoclonal antibodies directed against MMP9 (Calbiochem, clone 6-6B), or MMP2 (Millipore, clone CA-4001), or with PBS for 1 hr at room temperature. Tissues were rinsed once with PBS, blotted, and briefly air dried and then overlain with DQ-gelatin (Invitrogen) dissolved to 1 mg/mL in deionized water and then diluted 1:10 in 1% wt/vol low gelling point agarose type VII (Sigma) in PBS. The sections were covered with coverslips, incubated in the dark at room temperature for 20 min, and imaged on an Olympus IX80 inverted microscope fitted with fluorescence optics, using SlideBook™ imaging software (Intelligent Imaging Innovations, Inc., Philadelphia, Pa.; version 5.0). Fluorescence intensity was determined (Table 8). When compared to a saline-treated rat, gelatinase activity was abundantly expressed in granulomatous liver sections obtained from a rat with SCW arthritis.
Next, liver in situ zymography was used to assess the relative presence of active MMP9 in rats dosed with vehicle vs. Compound α. Female Lewis (LEW/N) rats, 5-6 weeks of age (80-100 g) were injected (i.p.) with saline or SCW PG-PS. Commencing on day 25, randomized groups of rats (n=3 rats/group) received vehicle or 20 or 50 mg/kg Compound α BID by oral gavage.
Vehicle consisted of an aqueous mixture containing 2% (v:v) N-methylpyrrolidone, 5% (v:v) glycerine, and 20% (w:v) captisol. Treatment continued daily through the morning of day 28. Four hrs after the AM dose on day 28, rats were sacrificed and livers assessed for active MMP9 by in situ zymography (Table 9). Gelatinase activity was increased markedly in SCW-induced rats, but activity was reduced by approximately 80% in animals treated with 50 mg/kg Compound α.

[2] = system: rats with SCW-induced arthritis; assay: Efficacy in rats with SCW arthritis (ankle thickness, clinical scores); type: in vivo, rat
Description: A polyarthritis can be induced in female Lewis rats following i.p. administration of streptococcal cell wall (SCW) proteoglycan-polysaccharides (PG-PS) (J Exp Med 1977; 146:1585-1602). The model has an acute phase (days 3-7) that is complement and neutrophil-dependent and that resolves. A chronic erosive phase begins at about day ten and is dependent on the development of specific T cell immunity to the PG-GS, which resists digestion and remains present in synovial macrophages for months. Like rheumatoid arthritis, SCW-induced arthritis is reduced by TNF inhibitors, and the dependence of SCW-induced arthritis on macrophages (Rheumatology; 2001; 40:978-987) and the strong association of rheumatoid arthritis severity with synovial-tissue macrophage counts (Ann Rheum Dis; 2005; 64:834-838) makes SCW-arthritis an attractive model for testing potential therapeutic agents. SCW PG-PS 10S (Beckton Dickinson Cat#210866) suspended in saline was vortexed for 30 seconds and sonicated for 3 min with a probe type sonicator prior to injection. Female Lewis (LEW/N) rats, 5-6 weeks of age (80-100 g) were injected (i.p.) with SCW PG-PS (15 μg of rhamnose/gram BW) in the lower left quadrant of the abdomen using a 1 mL syringe fitted with a 23-gauge needle. Control (disease-free) rats were treated in a similar manner with sterile saline. Control rats were sacrificed on day 5 and groups of SCW-injected rats were sacrificed on day 5 when acute inflammation was maximal or on day 18 when chronic inflammation was established.
To induce arthritis, Female Lewis (LEW/N) rats, 5-6 weeks of age (80-100 g) were injected (i.p.) with SCW PG-PS as described above. Eighteen days later, arthritis was well established. Calipers were used to measure the width (anterior to posterior surface) of the left and right hind ankles of each rat. Each ankle was measured 3 times and averaged, and treatment groups were randomized based on ankle thickness (Table 6). Commencing on day 18, randomized groups of arthritic rats (n=5 rats/group) received vehicle or 5, 20, or 50 mg/kg Compound α BID by oral gavage. Vehicle consisted of an aqueous mixture containing 2% (v:v) N-methylpyrrolidone, 5% (v:v) glycerine, and 20% (w:v) captisol. Treatment continued daily through the morning of day 26.
Hind paw inflammation clinical scores were assigned based on swelling and erythema.

T1 sequence (P50282 108-708): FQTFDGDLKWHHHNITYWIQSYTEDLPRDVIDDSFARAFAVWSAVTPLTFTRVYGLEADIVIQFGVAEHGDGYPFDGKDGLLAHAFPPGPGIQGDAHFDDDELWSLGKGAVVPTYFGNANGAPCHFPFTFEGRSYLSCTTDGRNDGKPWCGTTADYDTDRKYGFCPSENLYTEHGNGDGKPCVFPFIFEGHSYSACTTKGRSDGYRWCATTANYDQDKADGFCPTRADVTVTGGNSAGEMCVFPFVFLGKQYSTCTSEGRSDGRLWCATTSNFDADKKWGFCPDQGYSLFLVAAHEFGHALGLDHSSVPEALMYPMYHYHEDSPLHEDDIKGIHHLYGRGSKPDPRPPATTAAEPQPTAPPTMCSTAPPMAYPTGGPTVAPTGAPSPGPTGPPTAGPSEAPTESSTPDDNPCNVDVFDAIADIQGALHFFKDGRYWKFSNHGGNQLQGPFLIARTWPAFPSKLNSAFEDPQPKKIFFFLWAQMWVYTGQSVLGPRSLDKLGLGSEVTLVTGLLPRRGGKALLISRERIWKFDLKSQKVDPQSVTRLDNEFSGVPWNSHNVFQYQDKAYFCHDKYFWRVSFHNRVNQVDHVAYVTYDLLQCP

- Intensity Mean ([1]; 20 mg/kg BID oral): 55.2 RLU × 10^6
- Intensity Rat 1 ([1]; 20 mg/kg BID oral): 43.0 RLU × 10^6
- Intensity Rat 2 ([1]; 20 mg/kg BID oral): 69.0 RLU × 10^6
- Intensity Rat 3 ([1]; 20 mg/kg BID oral): 53.7 RLU × 10^6
- reduction of liver gelatinase activity ([1]; 50 mg/kg BID oral, Day 25-28): approximately 80%
- Intensity Mean ([1]; 50 mg/kg BID oral): 11.1 RLU × 10^6
- Intensity Rat 1 ([1]; 50 mg/kg BID oral): 3.2 RLU × 10^6
- Intensity Rat 2 ([1]; 50 mg/kg BID oral): 25.6 RLU × 10^6
- Intensity Rat 3 ([1]; 50 mg/kg BID oral): 4.5 RLU × 10^6
SMILES: Cc1nc(C)c(-c2csc(Nc3cc(S(N)(=O)=O)ccc3OC(C)C)n2)s1 [Compound α, 3-(2′,4′-Dimethyl-[4,5′]bithiazolyl-2-ylamino)-4-isopropoxy-benzenesulfonamide.HBr]
- ankle thickness measurements ([2]; 5, 20, 50 mg/kg BID oral, Day 18-26): dose-dependent decrease
- clinical score measurements ([2]; 5, 20, 50 mg/kg BID oral, significant effects emerging at 20 mg/kg): dose dependent decrease
- inhibition at 5 mg/kg ([2]; Rattus norvegicus, 5 mg/kg BID oral, Day 18-26, read-out: Day 26 % Inh of disease associated increase in ankle thickness): 27%
- inhibition at 20 mg/kg ([2]; Rattus norvegicus, 20 mg/kg BID oral, Day 18-26, read-out: Day 26 % Inh of disease associated increase in ankle thickness): 37%
- inhibition at 50 mg/kg ([2]; Rattus norvegicus, 50 mg/kg BID oral, Day 18-26, read-out: Day 26 % Inh of disease associated increase in ankle thickness): 46%
